Assay results taken from US9867372B2, “Tetrazolinone compound and use of same” (SUMITOMO CHEMICAL COMPANY, LIMITED, priority 2013, dated 2018).

System: barley net blotch fungus (Pyrenophora teres)
Experiment: barley net blotch control test, foliar spray before inoculation
Assay type: in vivo
Conditions: 3.1 ppm, sprayed 2 days before inoculation (Test Example 1, Comparative Example 1)

Compound | area of lesion spots on the treated plant relative to that on an untreated plant [%]
Cn1nnn(-c2ccccc2COc2cccc(-c3ccccc3)n2)c1=O [1-methyl-4-[2-(6-phenylpyridin-2-yloxymethyl)-phenyl]-1,4-dihydrotetrazol-5-one, reference compound] | ≥ 70
Cc1cccc(-n2nnn(C)c2=O)c1COc1cccc(-c2ccccc2)n1 [compound 1, 1-methyl-4-[3-methyl-2-(6-phenylpyridin-2-yloxymethyl)phenyl]-1,4-dihydrotetrazol-5-one] | ≤ 30

System: common cutworm (Spodoptela litura)
Experiment: common cutworm larvae mortality test, treated artificial diet
Assay type: in vivo
Conditions: 500 ppm, 2 mL on Insecta LF, third instar larvae, after 6 days (Test Example 25)

Compound | mortality [%]
COc1ccccc1-c1cccc(OCc2c(C)cccc2-n2nnn(C)c2=O)c1 [compound 52] | 100

System: cotton aphid (Aphis gossypii)
Experiment: cotton aphid control test on cucumber, spray
Assay type: in vivo
Conditions: 144 h, 20 mL sprayed, counted after 6 days (Test Example 20)
Method: Thirty (30) heads of cotton aphid (Aphis gossypii) (including adults and larvae) were released on the leaves of cucumber (cultivar: […]) grown in a polyethylene cup until the first true leaf was developed. Next day, 20 mL of the above test chemical solution was sprayed. […] Control value (%)={1-(Cb×Tai)/(Cai×Tb)}×100 wherein symbols in the equation represent the followings: Cb: Number of insects before spraying chemical solution in untreated area; Cai: Number of surviving insects in untreated area; Tb: Number of insects before spraying chemical solution in treated area; and Tai: Number of surviving insects in treated area.

Compound | pest or weed control at 500 ppm [%]
COc1ccc(-c2cccc(OCc3c(OC)cccc3-n3nnn(C)c3=O)c2)cc1 [compound 44] | ≥ 90
COc1cccc(-c2cccc(OCc3c(C)cccc3-n3nnn(C)c3=O)c2F)c1 [compound 111] | ≥ 90
Cc1ccc(OCc2c(C)cccc2-n2nnn(C)c2=O)cc1-c1ccc(F)cc1 [compound 119] | ≥ 90
Cc1ccc(OCc2c(C)cccc2-n2nnn(C)c2=O)cc1-c1ccc(Cl)cc1 [compound 122] | ≥ 90
Cc1cccc(-n2nnn(C)c2=O)c1COc1cc(-c2ccccc2)ccc1Cl [compound 128] | ≥ 90
Cc1cccc(-n2nnn(C)c2=O)c1COc1cc(-c2ccc(Cl)cc2)ccc1F [compound 134] | ≥ 90
COc1cccc(-c2ccc(Cl)c(OCc3c(C)cccc3-n3nnn(C)c3=O)c2)c1 [compound 135] | ≥ 90
COc1ccc(-c2cc(OCc3c(C)cccc3-n3nnn(C)c3=O)ccc2OC)cn1 [compound 139] | ≥ 90
COc1ccc(-c2cc(C)cc(OCc3c(C)cccc3-n3nnn(C)c3=O)c2)cc1 [compound 142] | ≥ 90
Cc1cc(OCc2c(C)cccc2-n2nnn(C)c2=O)cc(-c2ccccc2)c1 [compound 143] | ≥ 90
Cc1cccc(-n2nnn(C)c2=O)c1COc1cccc(-c2ccc3ocnc3c2)c1 [compound 159] | ≥ 90
COc1ccc(-c2cccc(OCc3c(C)cccc3-n3nnn(C)c3=O)c2)nn1 [compound 165, 1-{2-[3-(3-methoxypyridazin-6-yl)phenoxymethyl]-3-methylphenyl}-4-methyl-1,4-dihydrotetrazol-5-one] | ≥ 90

System: (Adoxophyes orana)
Experiment: Adoxophyes orana larvae mortality test, treated artificial diet
Assay type: in vivo
Conditions: 500 ppm, 1 mL on Silkmate 2S, first instar larvae, after 7 days (Test Example 26)

Compound | mortality [%]
COc1ccccc1-c1cccc(OCc2c(C)cccc2-n2nnn(C)c2=O)c1 [compound 52] | 100

System: tomato late blight fungus (Phytophthora infestans)
Experiment: not given
Assay type: in vivo
Conditions: 500 ppm, sprayed 2 days before inoculation (Test Example 17)

Compound | area of lesion spots on the treated plant relative to that on an untreated plant [%]
COc1ccc(-c2cccc(OCc3c(C)cccc3-n3nnn(C)c3=O)c2)cn1 [compound 57] | ≤ 30
